Data from paper PMC8459971, “Evaluation of the hepatotoxicity of the novel GPR40 (FFAR1) agonist CPL207280 in the rat and monkey” (PLoS ONE, 2021).
“And” between values parts separate entries of the source, which are not always exact repeats. Equal entries are not always repeated. “Also recorded” adds a separate entry of the source.

Key:
[1] = Pharmacokinetics in mice, serum and liver concentrations; conditions: for serum conc: mouse, 3 mg/kg p.o., individual animals, 3 mg/kg
MRP4 = biological target: T1, MRP4 (Homo sapiens, UniProt O15439); experiment: Vesicular transport inhibition assay, MRP4; conditions: for Accumulation (counts per minute; CPM) with AMP / Accumulation (counts per minute; CPM) with ATP: MRP4;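 further: membrane vesicles with MRP4 incubated with compound and probe substrate plus 4 mM ATP, or AMP as passive-diffusion background, vesicular substrate uptake read by liquid scintillation counting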;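 on Accumulation (counts per minute; CPM) with AMP: ATP 4 mM vs AMP background separates transporter uptake from diffusion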;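 on Accumulation (counts per minute; CPM) with ATP: ATP 4 mM vs AMP background separates transporter uptake from diffusion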
T1 sequence (O15439 1-1325): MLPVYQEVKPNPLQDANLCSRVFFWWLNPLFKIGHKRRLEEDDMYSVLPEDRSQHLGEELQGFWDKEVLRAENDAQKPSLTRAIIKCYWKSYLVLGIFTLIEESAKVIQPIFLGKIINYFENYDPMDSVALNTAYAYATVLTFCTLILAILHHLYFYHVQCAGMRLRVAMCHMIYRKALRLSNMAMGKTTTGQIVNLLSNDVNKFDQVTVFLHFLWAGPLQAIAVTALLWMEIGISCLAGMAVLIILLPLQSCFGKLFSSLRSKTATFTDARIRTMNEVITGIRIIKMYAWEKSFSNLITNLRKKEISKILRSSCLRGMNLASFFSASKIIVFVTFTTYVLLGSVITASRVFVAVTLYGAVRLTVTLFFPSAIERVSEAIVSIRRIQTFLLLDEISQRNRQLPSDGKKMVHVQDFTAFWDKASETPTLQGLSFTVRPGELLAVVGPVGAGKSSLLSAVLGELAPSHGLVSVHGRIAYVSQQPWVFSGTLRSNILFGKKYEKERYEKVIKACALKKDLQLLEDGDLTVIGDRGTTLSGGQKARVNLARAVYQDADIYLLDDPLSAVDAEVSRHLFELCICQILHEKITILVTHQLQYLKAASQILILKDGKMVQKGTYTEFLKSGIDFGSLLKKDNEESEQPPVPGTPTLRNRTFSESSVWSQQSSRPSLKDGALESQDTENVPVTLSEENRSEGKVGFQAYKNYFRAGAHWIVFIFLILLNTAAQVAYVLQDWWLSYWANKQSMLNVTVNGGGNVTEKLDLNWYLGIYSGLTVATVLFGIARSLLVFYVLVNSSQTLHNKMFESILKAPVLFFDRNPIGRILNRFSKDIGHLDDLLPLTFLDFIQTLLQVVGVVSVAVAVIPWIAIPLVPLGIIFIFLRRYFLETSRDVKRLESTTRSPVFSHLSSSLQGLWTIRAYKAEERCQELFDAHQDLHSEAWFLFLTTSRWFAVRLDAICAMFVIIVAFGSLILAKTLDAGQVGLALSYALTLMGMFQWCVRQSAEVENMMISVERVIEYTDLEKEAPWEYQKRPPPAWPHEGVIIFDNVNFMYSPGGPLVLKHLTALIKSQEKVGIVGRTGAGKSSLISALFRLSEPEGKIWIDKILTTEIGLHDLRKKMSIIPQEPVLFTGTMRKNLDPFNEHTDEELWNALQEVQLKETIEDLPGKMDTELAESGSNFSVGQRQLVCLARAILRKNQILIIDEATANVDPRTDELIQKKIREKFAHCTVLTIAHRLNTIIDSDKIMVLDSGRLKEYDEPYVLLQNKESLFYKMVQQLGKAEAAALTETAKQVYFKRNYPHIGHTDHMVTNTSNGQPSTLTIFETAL

[2] = Repeat-dose study in diabetic ZDF rats, serum ALT and AST; type: in vivo, rat; conditions: 15 and 45 mg/kg/day, 42 days
Text: Male ZDF rats (n = 8) and ZL rats (n = 8) were aged 9 weeks and were housed 2–3 per cage within a small animal facility in accordance with the guidelines approved by the Association for Assessment and Accreditation of Laboratory Animal Care. […] All animals had ad libitum access to water during the entire study period. The animals were fed a diet of Purina Rodent LabDiet 5C08, equivalent to LabDiet 5008. Treatment-grouped rats (N = 8) underwent oral gavage with the test compound or vehicle at 10 mL/kg for 6 weeks. For fasting blood levels of ALT and AST after overnight fasting, blood was collected from the jugular vein or through a cardiac puncture (on the day of euthanasia, the last day of the study). Blood was collected in AXYGEN microtubes (MCT-150-C) for clinical blood chemistry measurements. Next, the sample was allowed to clot for a minimum of 30 min at room temperature and then centrifuged at 4°C and 4000 x g for 10 min. The resultant serum was transferred into three pre-labeled AXYGEN microtubes for blood chemistry analysis using the ADVIA 2400 chemistry system. Rats were euthanized by overdose of CO2 followed by decapitation.

[3] = Repeat-dose study in healthy Wistar Han rats, safety (14 and 56 days); type: in vivo, rat
HepG2 = experiment: Viability assay, HepG2 cells, MTT test, 48 h; type: cell-based, human; conditions: for viability, normalized to DMSO-treated controls: sheet Fig1 panel B (HepG2), 48 h, replicates, in % (unit assumed)
Procedure: (§1) To study the viability of the liver cells, 5 × 10^3 HepG2 (ATCC®) or human primary cells (ThermoFisher Scientific, USA) were seeded in 100 μL of DMEM media (Gibco; Thermo Fisher Scientific, USA) supplemented with fetal bovine serum (FBS)- in a 96-well plate. […] The experiments were performed in triplicates.

[4] = Viability assay, HepG2 cells, MTT test, 48 h; type: cell-based, human; conditions: human, HepG2 cells, sheet Fig1 panel B (HepG2), 48 h, replicates, read-out: viability, normalized to DMSO-treated controls
Procedure: as §1

With `CC#C[C@@H](CC(=O)O)c1ccc(OCC(C)=C(C)C)cc1` [CPL207280] the “distribution between liver and serum” value ([1]; mice, single oral dose 3 mg/kg, 15 min to 24 h) was “serum was observed to be the central compartment”, the serum conc ([1]; 0.5 h) was 6337 and 10977.8 and 8698.6 and 7860.2 and the serum conc ([1]; 1 h) was 14190.2 and 17872.7 and 14644.7 and 11914.7. The serum conc ([1]; 2 h) was 4293.9 and 8727 and 12877.2 and 5407.3, the serum conc ([1]; 4 h) was 1048.2 and 2271.3 and 3572 and 4146.1 and the serum conc ([1]; 7 h) was 456.3 and 1659.3 and 757.1 and 1712.9. For the same molecule, the serum conc ([1]; 12 h) was 198.5 and 247.1 and 27.4 and 10.5, the serum conc ([1]; 24 h) was 14.5 and 37.9 and 532.6 and 298 and the “Penetration into the liver” value ([1]; summary comparison CPL207280 vs TAK-875) was “<”. The IC50 (MRP4) was 131 µM, the “fold less inhibitory potency than TAK-875, MRP4” value (MRP4) was “at least 10 fold” and the “Accumulation (counts per minute; CPM) with AMP” value (MRP4; conc 0.10 µM) was 1154 CPM and 1110 CPM. For the same molecule, the “Accumulation (counts per minute; CPM) with ATP” value (MRP4; conc 0.10 µM) was 5335 CPM and 5537 CPM, the “Accumulation (counts per minute; CPM) with AMP” value (MRP4; conc 1.00 µM) was 1207 CPM and 1074 CPM and the “Accumulation (counts per minute; CPM) with ATP” value (MRP4; conc 1.00 µM) was 5159 CPM and 5701 CPM. The “Accumulation (counts per minute; CPM) with AMP” value (MRP4; conc 3.00 µM) was 1157 CPM and 1113 CPM, the “Accumulation (counts per minute; CPM) with ATP” value (MRP4; conc 3.00 µM) was 5157 CPM and 5321 CPM and the “Accumulation (counts per minute; CPM) with AMP” value (MRP4; conc 10.00 µM) was 1132 CPM and 1046 CPM. The “Accumulation (counts per minute; CPM) with ATP” value (MRP4; conc 10.00 µM) was 4884 CPM and 5225 CPM, the “Accumulation (counts per minute; CPM) with AMP” value (MRP4; conc 30.00 µM) was 1054 CPM and 1003 CPM and the “Accumulation (counts per minute; CPM) with ATP” value (MRP4; conc 30.00 µM) was 4460 CPM and 4110 CPM. The “Accumulation (counts per minute; CPM) with AMP” value (MRP4; conc 100.00 µM) was 1090 CPM and 1013 CPM, the “Accumulation (counts per minute; CPM) with ATP” value (MRP4; conc 100.00 µM) was 3600 CPM and 3817 CPM and the “Accumulation (counts per minute; CPM) with AMP” value (MRP4; conc 300.00 µM) was 1018 CPM and 920 CPM. For the same molecule, the “Accumulation (counts per minute; CPM) with ATP” value (MRP4; conc 300.00 µM) was 2078 CPM and 2196 CPM, the “ALT and AST levels vs vehicle-treated ZDF group” value [2] was “failed to alter the ALT and AST levels” and the MTD at 14 days ([3]; both sexes, Wistar Han, rat, in vivo, oral, rats, 14-day study, read-out: maximum tolerated dose (MTD)) was 600 mg/kg. For the same molecule, the mortality ([3]; rats, 1200 mg/kg group, 14-day study) was “death of one subject occurred on day 7”, the ALT ([3]; rats, 1200 mg/kg, 14 days, fasted blood, significant increase from 34.2±8.5, in U/L (unit assumed)) was 60.0±8.0 and the ALP ([3]; rats, 1200 mg/kg, 14 days, fasted blood, significant increase from 86.3±30.2, in U/L (unit assumed)) was 136.1±55.3. The “ALT, AST and ALP” value ([3]; rats, 14-day study, doses up to 600 mg/kg) was “no ALT, AST, and ALP elevation”, the liver histopathology ([3]; rats, 14 days) was “no microscopic changes in the liver tissue” and the liver histopathology ([3]; rats, 56 days) was “mild to moderate hypertrophy of centrilobular hepatocytes at doses ≥ 150 mg/kg/day; also recorded: minimal to mild centrilobular hepatocyte hypertrophy”. For the same molecule, the “liver injury markers, TBA and T-BIL” value ([3]; rats, 56 days, 50, 150 and 500 mg/kg) was “none of the previously monitored markers nor TBA and T-BIL were altered”, the “reversibility of hepatocyte hypertrophy / liver weight increase” value ([3]; rats, 56 days, recovery period) was “reversible after 28 days” and the “liver mass as a percentage of body weight” value ([3]; rats, all groups (300, 600, 1200 mg/kg/day), 14 days) was “dose-dependent enlargement of the liver”. The “Propensity to elevate liver enzyme damage markers” value ([3]; summary comparison CPL207280 vs TAK-875 (TAK-875: ref 25), sign spans both columns) was “<”, the “Propensity to elevate bile acids and bilirubin in plasma” value ([3]; summary table) was “No” and the reduction of viability (HepG2; HepG2, 48 h, 100 μM) was 20%. The viability (HepG2; HepG2, 48 h, concentrations up to 10 μM) was “Neither compound exhibited altered viability”, the “times better tolerated by hepatocytes than TAK-875” value (HepG2; hepatocytes (HepG2 and human primary cells)) was 10 times and the “viability, normalized to DMSO-treated controls” value (“viability, normalized” for short) (HepG2; 0.78 uM) was 122.329 and 97.5265 and 106.534. For the same molecule, the “viability, normalized” value (HepG2; 3.125 uM) was 108.127 and 98.0055, the “viability, normalized” value (HepG2; 6.25 uM) was 101.696 and 107.84 and the “viability, normalized” value (HepG2; 25 uM) was 115.053 and 98.9684. For the same molecule, the “viability, normalized” value (HepG2; 50 uM) was 104.17 and 94.9794, the “viability, normalized” value (HepG2; 100 uM) was 89.5534 and 112.297 and 99.381 and the viability at 48 h, 3.125 µM ([4]; 3.125 uM) was 98.6%. It also gave a viability at 48 h, 6.25 µM ([4]; 6.25 uM) of 113%, a viability at 48 h, 25 µM ([4]; 25 uM) of 104% and a viability at 48 h, 50 µM ([4]; 50 uM) of 109%.
